≈ marks a conversion by molar mass, not a printed value. Entries after “also recorded” stand apart in the source; their conditions may differ. Read-outs that look alike come from different tables or passages of the source. Square brackets hold non-standard residues; d marks the D form. Peptide text beside a SMILES is read from it. hArg = N=C(N)NCCCC[C@H](N)C(=O)O; Dab = NCC[C@H](N)C(=O)O
How the values were obtained:
[1] = tested on: Shigella flexneri; conditions: 50 μL from MIC wells seeded into Petri plates, 24 h; lowest concentration without detectable growth
Method: The antibiotic activity was defined by the minimum peptide concentration where the microorganism is unable to grow. The assay was done in polypropylene 96-well plates (Greiner, Frickenhausen, Germany) to avoid peptide binding to plate wells. Peptides were dissolved in water containing 0.4% w/v bovine serum albumin (BSA) and 0.02% v/v glacial acetic acid to prevent self-aggregation, following the reference protocol by Wiegand et al.,[42] based on the classical microtiter broth dilution recommended by the National Committee of Laboratory Safety and Standards (NCLSS). Initial bacteria inoculum was adjusted to 5 × 10^5 CFU/mL in Mueller-Hinton (MH) medium. Incubations were kept at 37 °C for 24 h. Results are the average of three independent studies. […] To determine the MBC, 50 μL from all wells were seeded into Petri plates and incubated for 24 h. The MBC concentration was attributed to the lowest concentration without detectable bacterial growth for each peptide.

[2] = tested on: S. flexneri; conditions: 24 h
Source text: Purified horse red blood cells were acquired from Thermo Fisher Scientific (Hampshire, England). Human serum was purchased from Sigma (St Louis, USA). E. coli was obtained from the Coli Genetic Stock Center (BW25113). S. flexneri (ATCC 29903), A. baumannii (ATCC 15308), Pseudomonas sp. (ATCC 15915), and S. enterica (ATCC 14028) were obtained from the CECT (Valencia, Spain). Clinical strains were supplied by the Vall d’Hebron Hospital (Barcelona, Spain). MRC5 fibroblasts were obtained from the Cytometry and Cell Culture Facility (SCAC, UAB) and originally purchased from ATCC.
The antibiotic activity was defined by the minimum peptide concentration where the microorganism is unable to grow. The assay was done in polypropylene 96-well plates (Greiner, Frickenhausen, Germany) to avoid peptide binding to plate wells. Peptides were dissolved in water containing 0.4% w/v bovine serum albumin (BSA) and 0.02% v/v glacial acetic acid to prevent self-aggregation, following the reference protocol by Wiegand et al.,[42] based on the classical microtiter broth dilution recommended by the […]. Initial bacteria inoculum was adjusted to 5 × 10^5 CFU/mL in Mueller-Hinton (MH) medium. Incubations were kept at 37 °C for 24 h. Results are the average of three independent studies. MIC assays in the presence of serum were performed by incubating the peptide with human serum at a 1:1 ratio. Then, 10^6 cfu/mL of Pseudomonas sp. were incubated with serial dilutions of the peptides for 4 h. To determine the MBC, 50 μL from all wells were seeded into Petri plates and incubated for 24 h. The MBC concentration was attributed to the lowest concentration without detectable bacterial growth for each peptide.

[3] = tested on: Pseudomonas sp.; experiment: MIC, broth microdilution; type: cell-based; conditions: Pseudomonas sp. ATCC 15915; Mueller-Hinton medium, 5 × 10^5 CFU/mL, 37 °C, 24 h; average of three independent studies
Method: (§1) Human serum was purchased from Sigma (St Louis, USA).
(§2) Incubations were kept at 37 °C for 24 h. Results are the average of three independent studies.

[4] = tested on: A. baumannii; type: cell-based, Acinetobacter baumannii; conditions: 24 h
Method: as §1, §2

[5] = tested on: E. coli; experiment: Antimicrobial resistance, recurrent incubation; type: cell-based; conditions: for MIC: Escherichia coli
Method: To test whether recurrent incubation of bacteria with peptides could induce resistance, E. coli (10^7 cfu/mL) were incubated with peptides (1 μM) or ciprofloxacin (1 μg/mL) for 1 h. After incubation, cells were centrifuged, washed, and grown overnight in Mueller-Hinton medium. The cycle of incubation and growth was repeated in a cyclic manner for 7 days, and each day, cultures were tested for MIC to detect resistance.

[6] = tested on: Pseudomonas sp.; experiment: Minimum bactericidal concentration (MBC); type: cell-based; conditions: 50 μL from MIC wells seeded into Petri plates, 24 h; lowest concentration without detectable growth
Method: as §2

[7] = tested on: Salmonella enterica; type: cell-based; conditions: 24 h
Method: as §2

[8] = tested on: Acinetobacter baumannii; type: cell-based; conditions: 24 h
Method: as §2

[9] = tested on: Escherichia coli; type: cell-based; conditions: 24 h
Method: as §2

[10] = tested on: S. enterica; type: cell-based, Salmonella enterica; conditions: 24 h
Method: as §1, §2

[11] = tested on: E. coli; type: cell-based, Escherichia coli; conditions: 24 h
Method: as §1, §2

[12] = tested on: horse red blood cells; experiment: Hemolytic activity; type: cell-based
Method: The peptide toxicity was determined detecting the disruption of horse red blood cells, following a previous assay report.[35] 10-fold diluted cells in PBS were centrifuged three times at 800g to eliminate the hemoglobin from disrupted cells. After the last resuspension, erythrocytes were incubated with the peptides for 4 h at 37 °C. The detection was done measuring the supernatant absorbance in a VICTOR3 multilabel plate reader (Perkin Elmer, Waltham, Massachusetts) at 540 nm in a microplate reader. Percentage of hemolysis was calculated through a pattern done with dilutions of total cell lysis done with a 1% Triton X-100 buffer. Results are the average of three independent studies.

[13] = tested on: Pseudomonas sp.; experiment: MIC of peptides incubated with human serum; type: cell-based; conditions: peptide incubated with human serum 1:1; 10^6 cfu/mL Pseudomonas sp., 4 h
Method: as §2

[14] = Cytotoxicity in mammalian cells (MTT assay); type: cell-based; conditions: MRC-5 cytotoxicity (IC50)
Method: MRC-5 cells were grown in Eagle’s minimum essential medium (MEMα), supplemented with 10% fetal bovine serum (FBS). 96-well plates were seeded with 3 × 10^4 cells/well and cultured overnight in order to get cells adhered into the plate and then incubated with two-fold peptide serial dilutions. After 4 h of incubation, the medium containing the peptides was replaced by MEMα supplemented with FBS and 3-(4,5-dimethylthiazol-2-yl)-2,5-diphenyltetrazolium bromide (MTT) at 0.4 mg/mL and incubated for 150 min. Detection of formazan crystals in the living cells was done by cell disruption by addition of 200 μL of dimethyl sulfoxide (DMSO) followed by absorbance measuring at 600 nm in a Tecan Infinite F Nano+ microplate reader (Tecan, Germany). Results are the average of three independent studies.

[15] = 50% (v/v) Human Serum; conditions: up to 480 min
[16] = 50 μL from MIC wells seeded into Petri plates, lowest concentration without detectable growth

Compound | MBC Shigella flexneri [1] | MIC Pseudomonas sp. [3] | MBC Pseudomonas sp. [6] | MIC S. flexneri [2] | MIC E. coli [11] | hemolysis % (250 μM peptide) ([12]; red cells of horse, 4 h, 250) | MIC in Pseudomonas sp., peptides incubated with human serum [13] | IC50 [14] | MIC A. baumannii [4] | MBC Salmonella enterica [7] | MBC Acinetobacter baumannii [8] | MBC Escherichia coli [9] | MIC S. enterica [10] | cleaved bond [15] | also measured
CC[C@H](C)[C@H](NC(=O)[C@H](CCCCN)NC(=O)[C@H](CCC(=O)O)NC(=O)[C@H](CCCCN)NC(=O)[C@H](CO)NC(=O)[C@H](CCCCN)NC(=O)[C@H](CCCNC(=N)N)NC(=O)[C@H](Cc1ccccc1)NC(=O)[C@H](Cc1ccccc1)NC(=O)[C@H](CC(=O)O)NC(=O)CNC(=O)[C@H](CC(C)C)NC(=O)[C@@H](N)CC(C)C)C(=O)NCC(=O)N[C@@H](CCCCN)C(=O)N[C@@H](CCC(=O)O)C(=O)N[C@@H](Cc1ccccc1)C(=O)N[C@@H](CCCCN)C(=O)N[C@@H](CCCNC(=N)N)C(=O)N[C@H](C(=O)N[C@H](C(=O)N[C@@H](CCC(N)=O)C(=O)N[C@@H](CCCNC(=N)N)C(=O)N[C@H](C(=O)N[C@@H](CCCCN)C(=O)N[C@@H](CC(=O)O)C(=O)N[C@@H](Cc1ccccc1)C(=O)N[C@@H](CC(C)C)C(=O)N[C@@H](CCCNC(=N)N)C(=O)N[C@@H](CC(N)=O)C(=O)N[C@@H](CC(C)C)C(=O)N[C@H](C(=O)N1CCC[C@H]1C(=O)N[C@@H](CCCNC(=N)N)C(=O)N[C@H](C(=O)N[C@@H](CCC(=O)O)C(=O)N[C@@H](CO)C(=O)O)[C@@H](C)O)C(C)C)[C@@H](C)CC)C(C)C)[C@@H](C)CC [LL-37, reference compound] | 12.5 µM (≈ 56.2 µg/mL) | 1.56 µM (≈ 7.01 µg/mL) | 1.56 µM (≈ 7.01 µg/mL) |  |  |  |  |  |  |  |  |  |  |  | MIC S. flexneri ([2]; S. flexneri ATCC 29903, Mueller-Hinton medium, 5 × 10^5 CFU/mL, 37 °C, average of three independent studies): 12.5 µM (≈ 56.2 µg/mL); MIC A. baumannii ([4]; A. baumannii ATCC 15308, Mueller-Hinton medium, 5 × 10^5 CFU/mL, 37 °C, average of three independent studies): 6.25 µM (≈ 28.1 µg/mL); increase in MIC (induced resistance) in E. coli ([5]; 7 rounds of incubation with 1 μM peptide, below the MIC): did not detect a significant increase in MIC; MBC Salmonella enterica [7, 16]: 12.5 µM (≈ 56.2 µg/mL); MBC Acinetobacter baumannii [8, 16]: 6.25 µM (≈ 28.1 µg/mL); MBC Escherichia coli [9, 16]: 1.56 µM (≈ 7.01 µg/mL); MIC S. enterica ([10]; S. enterica ATCC 14028, Mueller-Hinton medium, 5 × 10^5 CFU/mL, 37 °C, average of three independent studies): 12.5 µM (≈ 56.2 µg/mL)
O=C(O)c1cn(C2CC2)c2cc(N3CCNCC3)c(F)cc2c1=O [ciprofloxacin] |  |  |  |  |  |  |  |  |  |  |  |  |  |  | MIC ([5]; after four cycles of incubation with ciprofloxacin (1 μM; 1 μg/mL elsewhere in the source), 1 h per cycle, 10^7 cfu/mL, read-out: MIC against E. coli after four cycles of incubation): 5 µM (≈ 1.66 µg/mL); MIC ([5]; start of recurrent incubation, read-out: MIC against E. coli before resistance cycles): 1.5 µM (≈ 0.497 µg/mL)
CC[C@H](C)[C@H](NC(=O)[C@H](C)NC(=O)[C@H](CCN)NC(=O)[C@H](CCSC)NC(=O)[C@H](C)NC(=O)[C@@H](NC(=O)[C@@H](NC(=O)[C@H](CCN)NC(=O)[C@@H]1CCCN1C(=O)[C@H](CO)NC(=O)[C@@H](NC(=O)[C@H](Cc1c[nH]cn1)NC(=O)[C@H](CCC(N)=O)NC(=O)[C@@H](NC(=O)[C@H](C)NC(=O)[C@H](Cc1ccccc1)NC(=O)[C@H](Cc1c[nH]c2ccccc12)NC(=O)[C@H](CCC(N)=O)NC(=O)[C@H](C)NC(=O)[C@H](CCN)NC(=O)[C@@H](NC(=O)[C@H](Cc1ccccc1)NC(=O)[C@@H]1CCCN1C(=O)[C@@H](N)CCN)[C@@H](C)O)[C@@H](C)CC)[C@@H](C)CC)[C@@H](C)O)[C@@H](C)CC)C(=O)N[C@@H](CC(N)=O)C(=O)N[C@@H](CC(N)=O)C(=O)N[C@@H](Cc1ccc(O)cc1)C(=O)N[C@@H](CCN)C(=O)N[C@@H](Cc1c[nH]c2ccccc12)C(=O)N[C@@H](CCN)C(N)=O [compound 3] (H-[Dab]PFT[Dab]AQWFAIQHISP[Dab]TIAM[Dab]AINNY[Dab]W[Dab]-NH2) | 6.25 µM (≈ 21.4 µg/mL) | 3.13 µM (≈ 10.7 µg/mL) | 3.13 µM (≈ 10.7 µg/mL) | 6.25 µM (≈ 21.4 µg/mL) | 6.25 µM (≈ 21.4 µg/mL) | 14 ± 6% | 12.5 µM | 182 ± 9 µM | 50 µM (≈ 171 µg/mL) | 50 µM (≈ 171 µg/mL) | 50 µM (≈ 171 µg/mL) | 6.25 µM (≈ 21.4 µg/mL) | 50 µM (≈ 171 µg/mL) |  | hemolysis % (250 μM peptide) [12]: 10%
CC[C@H](C)[C@H](NC(=O)[C@H](C)NC(=O)[C@H](CCCCNC(=N)N)NC(=O)[C@H](CCSC)NC(=O)[C@H](C)NC(=O)[C@@H](NC(=O)[C@@H](NC(=O)[C@H](CCCCNC(=N)N)NC(=O)[C@@H]1CCCN1C(=O)[C@H](CO)NC(=O)[C@@H](NC(=O)[C@H](Cc1c[nH]cn1)NC(=O)[C@H](CCC(N)=O)NC(=O)[C@@H](NC(=O)[C@H](C)NC(=O)[C@H](Cc1ccccc1)NC(=O)[C@H](Cc1c[nH]c2ccccc12)NC(=O)[C@H](CCC(N)=O)NC(=O)[C@H](C)NC(=O)[C@H](CCCCNC(=N)N)NC(=O)[C@@H](NC(=O)[C@H](Cc1ccccc1)NC(=O)[C@@H]1CCCN1C(=O)[C@@H](N)CCCCNC(=N)N)[C@@H](C)O)[C@@H](C)CC)[C@@H](C)CC)[C@@H](C)O)[C@@H](C)CC)C(=O)N[C@@H](CC(N)=O)C(=O)N[C@@H](CC(N)=O)C(=O)N[C@@H](Cc1ccc(O)cc1)C(=O)N[C@@H](CCCCNC(=N)N)C(=O)N[C@@H](Cc1c[nH]c2ccccc12)C(=O)N[C@@H](CCCCNC(=N)N)C(N)=O [compound 4] (H-[hArg]PFT[hArg]AQWFAIQHISP[hArg]TIAM[hArg]AINNY[hArg]W[hArg]-NH2) | 3.13 µM (≈ 12 µg/mL) | 3.13 µM (≈ 12 µg/mL) | 3.13 µM (≈ 12 µg/mL) | 3.13 µM (≈ 12 µg/mL) | 6.25 µM (≈ 24 µg/mL) | 43 ± 1% | 6.25 µM | 7.6 ± 0.7 µM | 12.5 µM (≈ 48 µg/mL) | 25 µM (≈ 96 µg/mL) | 12.5 µM (≈ 48 µg/mL) | 6.25 µM (≈ 24 µg/mL) | 25 µM (≈ 96 µg/mL) |  | 
OPFTOAQWFAIQHISPOTIAMOAINNYOWO |  |  |  |  |  |  |  |  |  |  |  |  |  | Pro2-Phe3 | fragment found [15]: OPFTOAQWFAIQHISPO-------------; also recorded: -----------------TIAMOAINNYOWO; also recorded: OPFTOAQWFAIQHIS---------------; also recorded: ------QWFAIQHISPOTIAMOAINNY---
RPFTRAQWFAIQHISPRTIAMRAINNYRWR |  |  |  |  |  |  |  |  |  |  |  |  |  | Pro2-Phe3 | 
